pIC50: −log10 of the molar value. Several values for one entry are separate records, joined by “and”; a condition that tells them apart may be missing. Identical values can stand only once. Entries after “also recorded” stand apart in the source; their conditions may differ.
Columns and labels:
[1] = molecular target: T1, C34 peptide derived from the C-terminal region of gp41 (residues 628-661) (Human immunodeficiency virus type 1 group M subtype B, UniProt P04578); assay: Interaction with C34 by analytical ultracentrifugation or CD; assay type: binding, HIV-1
T1 construct: the C34 peptide comprises residues 628-661 of the C-region of HIV-1 gp41; purchased Commonwealth Biotechnologies (Richmond, Va.); host or cells: solid-phase synthesis
Experimental: (§1) Circular Dichroism—CD spectra of peptides (at a concentration corresponding to 0.7-0.8 A280) were recorded at 25° C. on a JASCO J-720 spectropolarimeter using a 0.05-cm path length cell.
Sedimentation Equilibrium—Sedimentation equilibrium experiments were conducted at 20.0° C. and three different rotor speeds (16,000, 20,000, and 24,000) on a Beckman Optima XL-A analytical ultracentrifuge. Peptide samples were prepared in 50 mM sodium formate buffer (pH=3) and loaded into the ultracentrifuge cells at nominal loading concentrations of ˜0.2 and 0.7-0.8 A280. Data were analyzed in terms of a single ideal solute to obtain the buoyant molecular mass, M(1−νρ), using the Optima XL-A data analysis software (Beckman). […] J. Biochem. 157:169-180)).

[2] = Circular dichroism, secondary structure; assay type: physicochemical; settings: CD at 25° C., program CDNN
Experimental: as §1

[3] = Sedimentation equilibrium (analytical ultracentrifugation), oligomeric state; assay type: physicochemical; settings: 50 mM sodium formate pH 3, 20.0° C.
Description: […]. J. Biochem. 157:169-180)).

[4] = test system: HIV Env-mediated cell fusion; settings: read-out: fails to inhibit fusion even at concentrations as high as
[5] = molecular target: pre-hairpin intermediate of gp41 (Human immunodeficiency virus type 1 group M subtype B, UniProt P04578); design: species or system HIV-1
pre-hairpin intermediate of gp41, sequence (P04578 512-856): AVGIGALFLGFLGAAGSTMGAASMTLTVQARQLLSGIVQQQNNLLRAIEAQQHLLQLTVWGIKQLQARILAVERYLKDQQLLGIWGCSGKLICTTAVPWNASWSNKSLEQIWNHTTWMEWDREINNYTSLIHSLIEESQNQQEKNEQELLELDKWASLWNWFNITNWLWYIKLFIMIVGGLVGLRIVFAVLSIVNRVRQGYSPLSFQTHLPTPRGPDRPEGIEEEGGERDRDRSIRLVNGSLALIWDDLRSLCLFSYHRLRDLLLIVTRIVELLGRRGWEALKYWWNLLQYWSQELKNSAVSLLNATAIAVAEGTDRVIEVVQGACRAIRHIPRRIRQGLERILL

T1 sequence (P04578 628-661): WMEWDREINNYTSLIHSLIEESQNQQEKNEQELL

| Substance | interaction with C34 [1] | helical content [2] | oligomeric state in solution [3] | pIC50 [4] | optimized value of β (heterotrimerization with gp41 relative to Kref^trimer) [5] |
| --- | --- | --- | --- | --- | --- |
| SGIVQQLNNQLRAEEANQHLEQLSVWGSKQNQARRL; peptide derived from N36 with nine substitutions at positions a and d of the helical wheel (SGIVQQLNNQLRAEEANQHLEQLSVWGSKQNQARRL) [N36^Mut(a,d)] | does not interact with the C34 peptide; also recorded: No evidence of interaction | ~20% | monomeric; also recorded: monomer | < 4.00 |  |
| Ac-SGIDQEQNNLTRLIEAQIHELQLTQWKIKQLLARIL-NH2 [N36^Mut(e,g)] | does not interact with C34; also recorded: No evidence of interaction | ~80% | monodisperse, helical trimer |  | 2.97 and 5.76 |
